Assay results from article PMC9882606, “Rationally designed inhibitors of the Musashi protein-RNA interaction by hotspot mimicry” (Research Square, 2023).

Key:
MSI2 [1] = target: T1, MSI2 (Homo sapiens, UniProt Q96DH6); assay: mRNA immunoprecipitation (RIP) with anti-MSI2 in PC9 cells; format: cell-based; design: endogenous in cells; host or cells: PC9; conditions: PC9, 10 μM, 8 hours
Excerpt: Among previously described targets of MSI2 are PTP4A, SMAD3, EGFR, and MSI2 itself. To test for disruption of MSI2 with these cognate mRNAs upon treatment with R12–8–44–3, we used mRNA immunoprecipitation (RIP): we used an anti-MSI2 antibody to immunoprecipitate MSI2, then reverse transcribed and analyzed by qPCR to determine the amount of each specific mRNA that was bound to MSI2. As an important control to ensure that the resulting mRNA was indeed brought down by MSI2, we additionally verified that using a negative control antibody (instead of anti-MSI2) brought with it 100-fold less of each target mRNA (Figure S10). As a separate negative control, GAPDH mRNA was also quantified in the context of these studies (since GAPDH is not thought to be a target of MSI2).
PC9 cells were then treated with 10 μM of each compound for 8 hours and then analyzed by RIP.
Figure 7: Cellular characterization of MSI2 inhibition by R12–8–44–3. (A) Quantification of mRNA immunoprecipitation (RIP) results. […] After immunoprecipitation with anti-MSI2, mRNA targets were quantified. The amount of each target mRNA in the pulldown was calculated relative to the input, and results from all targets were normalized to PTP4A1. […] Cells were treated with indicated compounds at two concentrations (5 μM and 20 μM) for 48 hours, then protein levels of relevant MSI2 targets were determined (EGFR, SMAD3, and MSI2). […]

PC9 cells = assay: Clonogenic assay, combination with osimertinib, PC9; format: cell-based, human; conditions: PC9, 7 days, 2 nM osimertinib with 10 μM compound
Procedure: Figure 7: Cellular characterization of MSI2 inhibition by R12–8–44–3. (A) Quantification of mRNA immunoprecipitation (RIP) results. Cells were treated with 10 μM of the indicated compounds for 8 hours. After immunoprecipitation with anti-MSI2, mRNA targets were quantified. The amount of each target mRNA in the pulldown was calculated relative to the input, and results from all targets were normalized to PTP4A1. Treating cells with R12–8–44–3 disrupted the interaction with all four cognate mRNAs (PTP4A, SMAD3, EGFR, and MSI2). Data are presented as the average ± S.E.M. from at least 3 independent replicates. […] Cells were treated with indicated compounds at two concentrations (5 μM and 20 μM) for 48 hours, then protein levels of relevant MSI2 targets were determined (EGFR, SMAD3, and MSI2). One representative image is shown; quantification is presented as the average ± S.E.M. from at least 3 independent replicates, normalized first to beta-actin and then to DMSO-treated cells. (C) Cell viability dose-response quantified by CellTiter-Blue after 3 days (left) and cell proliferation with 10μM of compounds quantified by clonogenic assay after 7 days (right). […] (D) Cell viability quantified by clonogenic assay of PC9 cell line after 7-day treatment with 2 nM osimertinib (osi alone), osimertinib with 10 μM R12–8–44–3, or osimertinib with 10 μM R12-neg. […]

hnRNP A1 RRM1 domain = target: T2, hnRNP A1 RRM1 domain (Homo sapiens, UniProt P09651); assay: FP competition assay with the same fluorescently-labeled RNA; format: binding
T2 construct: we expressed and purified hnRNP A1’s RRM1 domain; made in house
T2 sequence (P09651 14-97 limits assumed): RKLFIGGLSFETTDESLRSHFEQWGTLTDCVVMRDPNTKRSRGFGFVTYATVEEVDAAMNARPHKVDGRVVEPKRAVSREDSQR

MSI2 [2] = target: T1, MSI2; assay: MS2-TRAP aptamer pull-down reporter assay in HEK293 cells; format: cell-based; design: HEK293 cells (with a high baseline MSI2 expression); endogenous in cells; host or cells: HEK293; conditions: HEK293, 24 h treatment
Excerpt: Figure 5: Characterization of R12–8–44–3 in a reporter cell line. […] As a positive control, Ro 08–2750 (aka “Ro”) is also included in these studies. (B) Schematic of reporter assay. HEK293 cells are transfected with a plasmid encoding an arbitrary gene (Luc) with UAG repeats (to recruit MSI2) and MS2 repeats (for pulldown) appended to its 3’ UTR. The same vector also includes FLAG-labeled MS2-BP. Upon anti-FLAG immunoprecipitation (IP), the FLAG-labeled MS2-BP allows purification of the Luc mRNA along with any associated factors. (C) Prior to IP, cells express Luc mRNA to a similar extent irrespective of whether they were treated with DMSO, R12-neg, R12–8–44–3, or Ro. (D) Prior to IP (“input”), MSI2 is detected in all samples to a similar extent (as is KU-86 loading control). After pulldown of Luc mRNA, MSI2 is found associated with the mRNA in cells treated with DMSO or R12-neg, but not in cells that had been treated with R12–8–44–3 or Ro. Representative image is shown; quantification is plotted as the average of 2 independent experiments ± S.E.M. Statistical analysis was performed using unpaired two tailed t-test, with * indicating p<0.05. Uncropped Western blots from this experiment are provided as Figure S8.
To determine whether inhibition of MSI1/MSI2 by R12–8–44–3 would apply in a cellular context, we adapted an aptamer pull-down reporter assay that we previously used to validate candidate Musashi target genes. Briefly, our approach is a variation of the MS2-TRAP (MS2-tagged RNA affinity purification) method, which uses bacteriophage protein MS2-BP to extract from cells any factors that associate with RNAs containing a specific stem-loop structure (MS2) from the phage genome. Here, we designed an mRNA construct that would include a series of MS2 hairpins and also a MSI2 recognition sequence. We transfected this construct into cells that also express FLAG-tagged MS2-BP (a protein unrelated to MSI2). By affinity purification using the FLAG tag, proteins bound to the designed mRNA can be extracted from cells.
To test for inhibition of MSI2 in cells, we transfected HEK293 cells (with a high baseline MSI2 expression), with the pMS2-LUC-3’UTR from our previous studies. This vector appends onto the 3’UTR of an arbitrary gene (in this case luciferase) two key elements: UAG-motifs comprising a MSI2 recognition sequence, and a series of five MS2 hairpins. The same vector also encodes the FLAG-MS2-BP fusion needed for affinity purification (Figure 5b). Cells were then treated with each compound of interest for 24 h, and then the cells were subsequently harvested and used for anti-FLAG immunoprecipitation. […] Using qPCR we evaluated the amount of Luc mRNA in cells treated with R12–8–44–3, R12-neg, or Ro, and found this to be unchanged (Figure 5c).

T1 sequence (Q96DH6 whole entry): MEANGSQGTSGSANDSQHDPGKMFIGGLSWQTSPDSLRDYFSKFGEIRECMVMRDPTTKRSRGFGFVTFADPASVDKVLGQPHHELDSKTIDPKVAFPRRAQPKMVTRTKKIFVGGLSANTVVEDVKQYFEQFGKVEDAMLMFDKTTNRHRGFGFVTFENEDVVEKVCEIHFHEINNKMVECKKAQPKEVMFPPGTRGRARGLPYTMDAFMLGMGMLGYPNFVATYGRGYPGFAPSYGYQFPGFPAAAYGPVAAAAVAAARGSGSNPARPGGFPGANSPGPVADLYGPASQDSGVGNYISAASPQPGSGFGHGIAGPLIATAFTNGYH

Cc1cc(C(=O)OCc2nc(N)c3c(C)c(C)sc3n2)c(N)cc1F [R12–8–44–3]
amount of target mRNA associated with MSI2 (PTP4A, SMAD3, EGFR, MSI2) (MSI2 [1]): statistically significant reduction in the amount of mRNA associated with MSI2 | clonogenic assay in combination with osimertinib (PC9 cells): robust combined effect with osimertinib | inhibition of hnRNP A1 RNA binding (hnRNP A1 RRM1 domain): does not inhibit | MSI2 purified with reporter mRNA (anti-FLAG pulldown) (MSI2 [2]): much less MSI2 is purified | total amount of MSI2 in cells (MSI2 [2]; input prior to IP): unaffected | amount of Luc mRNA in cells (qPCR) (MSI2 [2]; prior to IP): unchanged
